Tested on: MCF-7 breast cancer cells
Assay: Microarray gene expression analysis (Agilent whole human genome 4 x 44K; compound vs DMSO, LIMMA log2 fold change)
Type: cell-based
Details: Apoptosis genes

In the case of `Cn1ncc2c(N3CCOCC3)nc(-c3cccc(O)c3)nc21` [ETP-45658], the “PML log2FC” value (Gene 5371) was -0.804, the “POLR2G log2FC” value (Gene 5436) was 0.335 and the “POU3F3 log2FC” value (Gene 5455) was -0.318. For the same molecule, the “POU4F1 log2FC” value (Gene 5457) was -0.504, the “POU4F3 log2FC” value (Gene 5459) was -0.263 and the “PPARD log2FC” value (Gene 5467) was -0.520. The “PPARG log2FC” value (Gene 5468) was -0.185, the “PPID log2FC” value (Gene 5481) was 0.248 and the “PPP1CA log2FC” value (Gene 5499) was -0.227. For the same molecule, the “PPP2CA log2FC” value (Gene 5515) was -0.322, the “PPP2CB log2FC” value (Gene 5516) was -0.242 and the “PPP2R1B log2FC” value (Gene 5519) was -0.532. For the same molecule, the “PPP2R2B log2FC” value (Gene 5521) was 0.082, the “PPP2R4 log2FC” value (Gene 5524) was -0.446 and the “PPP2R5C log2FC” value (Gene 5527) was 0.888. For the same molecule, the “PPP3CC log2FC” value (Gene 5533) was 0.163, the “PPP3R1 log2FC” value (Gene 5534) was -0.308 and the “PPT1 log2FC” value (Gene 5538) was 0.432. For the same molecule, the “PRF1 log2FC” value (Gene 5551) was -0.050, the “PRKAA1 log2FC” value (Gene 5562) was 0.429 and the “PRKAA2 log2FC” value (Gene 5563) was 0.082. For the same molecule, the “PRKCA log2FC” value (Gene 5578) was -0.217, the “PRKCD log2FC” value (Gene 5580) was -0.079 and the “PRKCE log2FC” value (Gene 5581) was -0.042. The “PRKCG log2FC” value (Gene 5582) was -0.093, the “PRKCH log2FC” value (Gene 5583) was -0.256 and the “PRKCI log2FC” value (Gene 5584) was 0.583. For the same molecule, the “PKN2 log2FC” value (Gene 5586) was 0.510, the “PRKD1 log2FC” value (Gene 5587) was 0.494 and the “PRKCQ log2FC” value (Gene 5588) was 0.132. For the same molecule, the “PRKCZ log2FC” value (Gene 5590) was 0.430, the “PRKDC log2FC” value (Gene 5591) was 0.131 and the “MAPK3 log2FC” value (Gene 5595) was -0.190. For the same molecule, the “MAPK7 log2FC” value (Gene 5598) was -0.336, the “MAP2K6 log2FC” value (Gene 5608) was 0.116 and the “PRODH log2FC” value (Gene 5625) was -0.290. The “LGMN log2FC” value (Gene 5641) was -0.066, the “PSEN1 log2FC” value (Gene 5663) was 0.418 and the “PSEN2 log2FC” value (Gene 5664) was -0.458. For the same molecule, the “PSMA2 log2FC” value (Gene 5683) was 0.460, the “PSMA3 log2FC” value (Gene 5684) was 0.270 and the “PSMA4 log2FC” value (Gene 5685) was 0.609. For the same molecule, the “PSMA6 log2FC” value (Gene 5687) was 0.200, the “PSMB1 log2FC” value (Gene 5689) was 0.085 and the “PSMB2 log2FC” value (Gene 5690) was -0.547. For the same molecule, the “PSMB4 log2FC” value (Gene 5692) was 0.132, the “PSMB5 log2FC” value (Gene 5693) was -0.298 and the “PSMB6 log2FC” value (Gene 5694) was -0.120. For the same molecule, the “PSMB9 log2FC” value (Gene 5698) was -0.203, the “PSMB10 log2FC” value (Gene 5699) was -0.184 and the “PSMC1 log2FC” value (Gene 5700) was 0.172. The “PSMC2 log2FC” value (Gene 5701) was 0.576, the “PSMC3 log2FC” value (Gene 5702) was -0.176 and the “PSMC5 log2FC” value (Gene 5705) was -0.327. The “PSMC6 log2FC” value (Gene 5706) was 0.776, the “PSMD1 log2FC” value (Gene 5707) was 0.397 and the “PSMD3 log2FC” value (Gene 5709) was -0.109. The “PSMD4 log2FC” value (Gene 5710) was -0.086, the “PSMD5 log2FC” value (Gene 5711) was 0.388 and the “PSMD7 log2FC” value (Gene 5713) was 0.182. The “PSMD8 log2FC” value (Gene 5714) was -0.132, the “PSMD9 log2FC” value (Gene 5715) was -0.171 and the “PSMD10 log2FC” value (Gene 5716) was -0.293. For the same molecule, the “PSMD11 log2FC” value (Gene 5717) was -0.214, the “PSMD12 log2FC” value (Gene 5718) was -0.582 and the “PSME1 log2FC” value (Gene 5720) was 0.322. The “PTEN log2FC” value (Gene 5728) was 1.014, the “PTGFR log2FC” value (Gene 5737) was -0.039 and the “PTGIS log2FC” value (Gene 5740) was 0.033. For the same molecule, the “PTH log2FC” value (Gene 5741) was -0.079, the “PTGS2 log2FC” value (Gene 5743) was -0.151 and the “PTK2 log2FC” value (Gene 5747) was 0.157. The “PTPN6 log2FC” value (Gene 5777) was 0.120, the “PTPRC log2FC” value (Gene 5788) was -0.053 and the “PTPRH log2FC” value (Gene 5794) was 0.279. For the same molecule, the “RAC1 log2FC” value (Gene 5879) was -0.258, the “RAD9A log2FC” value (Gene 5883) was 0.686 and the “RAD21 log2FC” value (Gene 5885) was 1.043. The “RAG1 log2FC” value (Gene 5896) was 0.657, the “RALB log2FC” value (Gene 5899) was 0.324 and the “RARA log2FC” value (Gene 5914) was -0.580. For the same molecule, the “RARG log2FC” value (Gene 5916) was -0.272, the “RASA1 log2FC” value (Gene 5921) was 0.488 and the “RASGRF2 log2FC” value (Gene 5924) was -0.240. The “RB1 log2FC” value (Gene 5925) was 0.746, the “RELA log2FC” value (Gene 5970) was -0.454 and the “DPF2 log2FC” value (Gene 5977) was 0.303. For the same molecule, the “REST log2FC” value (Gene 5978) was 0.367, the “ROBO1 log2FC” value (Gene 6091) was 0.128 and the “ROBO2 log2FC” value (Gene 6092) was -0.056. The “ROCK1 log2FC” value (Gene 6093) was 0.615, the “RPS3A log2FC” value (Gene 6189) was 0.669 and the “RPS6 log2FC” value (Gene 6194) was 0.357. For the same molecule, the “RPS6KA1 log2FC” value (Gene 6195) was -0.234, the “RPS6KA3 log2FC” value (Gene 6197) was 0.412 and the “RPS6KB1 log2FC” value (Gene 6198) was 0.426. For the same molecule, the “RPS27A log2FC” value (Gene 6233) was 0.401, the “RTKN log2FC” value (Gene 6242) was -0.208 and the “SORT1 log2FC” value (Gene 6272) was 0.261. For the same molecule, the “S100A8 log2FC” value (Gene 6279) was 0.469, the “S100B log2FC” value (Gene 6285) was -0.122 and the “SATB1 log2FC” value (Gene 6304) was 0.589. The “SCT log2FC” value (Gene 6343) was -0.095, the “CCL2 log2FC” value (Gene 6347) was -0.179 and the “CCL3 log2FC” value (Gene 6348) was -0.223. For the same molecule, the “CCL5 log2FC” value (Gene 6352) was 0.088, the “CCL21 log2FC” value (Gene 6366) was -0.170 and the “CX3CL1 log2FC” value (Gene 6376) was -0.563. For the same molecule, the “CXCL12 log2FC” value (Gene 6387) was -0.211, the “MAP2K4 log2FC” value (Gene 6416) was 0.120 and the “SET log2FC” value (Gene 6418) was 0.225. The “SFRP1 log2FC” value (Gene 6422) was 0.214, the “SFRP2 log2FC” value (Gene 6423) was -0.093 and the “SFRP4 log2FC” value (Gene 6424) was 0.051. The “SFRP5 log2FC” value (Gene 6425) was -0.042, the “ITSN1 log2FC” value (Gene 6453) was 0.278 and the “SHB log2FC” value (Gene 6461) was -0.876. The “SHH log2FC” value (Gene 6469) was -0.209, the “SIAH1 log2FC” value (Gene 6477) was 0.248 and the “SIAH2 log2FC” value (Gene 6478) was -0.579. For the same molecule, the “STIL log2FC” value (Gene 6491) was 0.485, the “SIX1 log2FC” value (Gene 6495) was -0.507 and the “SKI log2FC” value (Gene 6497) was -0.663. The “SLC9A1 log2FC” value (Gene 6548) was -0.600, the “SLIT3 log2FC” value (Gene 6586) was -0.286 and the “SNAI2 log2FC” value (Gene 6591) was 0.199. For the same molecule, the “SMO log2FC” value (Gene 6608) was -0.194, the “SMPD1 log2FC” value (Gene 6609) was 0.257 and the “SMPD2 log2FC” value (Gene 6610) was -0.399. For the same molecule, the “SIGLEC1 log2FC” value (Gene 6614) was -0.350, the “SNAI1 log2FC” value (Gene 6615) was -0.710 and the “SNCB log2FC” value (Gene 6620) was -0.626. The “SNCA log2FC” value (Gene 6622) was -0.041, the “SOD2 log2FC” value (Gene 6648) was 0.179 and the “SON log2FC” value (Gene 6651) was -0.111. For the same molecule, the “SOX2 log2FC” value (Gene 6657) was 0.298, the “SOX4 log2FC” value (Gene 6659) was 0.216 and the “SOX9 log2FC” value (Gene 6662) was -2.381. The “SOX10 log2FC” value (Gene 6663) was -0.095, the “SP100 log2FC” value (Gene 6672) was 0.968 and the “SPI1 log2FC” value (Gene 6688) was -0.242. The “SPN log2FC” value (Gene 6693) was -0.216, the “SRC log2FC” value (Gene 6714) was -0.316 and the “SRPK2 log2FC” value (Gene 6733) was 0.850. For the same molecule, the “SST log2FC” value (Gene 6750) was 0.289, the “SSTR3 log2FC” value (Gene 6753) was -0.375 and the “STAR log2FC” value (Gene 6770) was -0.189. The “STAT1 log2FC” value (Gene 6772) was 0.445, the “STAT5A log2FC” value (Gene 6776) was 0.569 and the “STAT5B log2FC” value (Gene 6777) was 0.093. For the same molecule, the “STK4 log2FC” value (Gene 6789) was 0.158, the “STK11 log2FC” value (Gene 6794) was -0.165 and the “STXBP1 log2FC” value (Gene 6812) was -0.504. The “SUPV3L1 log2FC” value (Gene 6832) was 0.440, the “ADAM17 log2FC” value (Gene 6868) was 0.578 and the “TAF9 log2FC” value (Gene 6880) was 0.363. The “MAP3K7 log2FC” value (Gene 6885) was 0.181.

— publication PMC4303209, “A novel phosphatidylinositol 3-kinase (PI3K) inhibitor directs a potent FOXO-dependent, p53-independent cell cycle arrest phenotype characterized by the differential induction of a subset of FOXO-regulated genes” (Breast Cancer Research : BCR, 2014)
